This is an account of results in US5304631A, “Synthetic helizyme enzymes” (University of Colorado Foundation, Inc., priority 1990, dated 1994).

One may read the Km as the concentration of substrate that gives half-maximal velocity. One may read the kcat as the number of substrate molecules converted per active site and unit of time at saturation.

What all share (type): biochemical
Series [1] deals with monomeric Chymohelizyme 1. The series is described as follows: Inhibition of substrate hydrolysis by Chymohelizyme 1 by specific chymotrypsin inhibitors. From the text: Inclusion of indole at a concentration equal to that of the substrate ZTONP caused approximately 70% inhibition of substrate hydrolysis.
Series [2] is described as follows: Hydrolysis of ZTONP (esterase activity), followed spectrophotometrically. As to conditions: initial turnover number. As for the experimental part:
Kinetic studies of purified Chymohelizyme 1 were performed using ATEE, BTEE or ZTONP as the substrate.
The progress of the reaction was followed spectrophotometrically. Progress of the hydrolysis of ATEE was followed by titration.

Series [3] in a line: Hydrolysis of ATEE (esterase activity), followed by titration. As to conditions: pH 8.1, 0.05 molar sodium chloride solution. As for the experimental part:
Hydrolysis of ATEE at pH 8.1 in 0.05 molar sodium chloride solution followed classical Michaelis-Menten kinetics; kM=1.0 mM and kcat=0.042/sec(corresponding values for chymotrypsin are 0.7 mM; 3.0/sec), showing an activity approximately 1% that of chymotrypsin for this substrate.
Hydrolysis of BTEE and ZTONP were performed as described (Meth. Enzymol. volume XIX, Academic Press, New York, 1970, pp. 38-41). The progress of the reaction was followed spectrophotometrically. Progress of the hydrolysis of ATEE was followed by titration.

For `c1ccc2[nH]ccc2c1` [indole], the “inhibition of hydrolysis of substrates by monomeric Chymohelizyme 1” value in series [1] is “inhibited”. Besides, the “inhibition of substrate hydrolysis” value in series [1] (inhibitor at a concentration equal to that of the substrate ZTONP) is recorded as “approximately 70%”.

In the case of `Cc1ccc(O)cc1` [p-cresol], in series [1], the “inhibition of hydrolysis of substrates by monomeric Chymohelizyme 1” value was “inhibited”.

Compound chymotrypsin returned a turnover number in series [2] of 300 s⁻¹. Further, in series [3], the Km came to 700 µM and the kcat worked out at 3.0 s⁻¹.
